Patent US6812214B2, “Use of harpagid-related compounds for prevention and treatment of osteoporosis, arthritis and ruptured disc and pharmaceutical composition containing the same” (priority 2000, dated 2004)
Entries after “also recorded” stand apart in the source; their conditions may differ.

Tests used:
[1] = system: edema-induced albino rats; assay: Inhibitory effect on edema of arthritis (Zymosan-A / Freund's adjuvant induced paw edema); format: in vivo; settings: for inhibitory effect on edema: in words, after 70 days
Protocol: In order to observe the inhibitory effect on edema of the pharmaceutical composition of the present invention, 6 albino rats weighing 200 g were used per test group to induce edema by injecting the mixture of 0.5 ml of Zymosan-A (20 mg/ml/kg) and 0.5 ml of Freund's adjuvant into ST36 position of left paw and then observed for the progress of edema for 70 days by taking a photograph before and after induction of edema. The water extract and organic solvent fractions of the pharmaceutical composition of the present invention were respectively constituted in the concentration of 0.6 mg/ml and then orally administered for 14 days to albino rats in an amount of 1 ml per kg of body weight once a day to determine the inhibitory effect on edema. As the test sample, the organic solvent fractions of the pharmaceutical composition including ABE, ABB, ABW, CBE, CBB, CBW, LNE, LNB, LNW, CRB, CRW, SSH and SSW were respectively used. As the result of this test, it was observed that edema was started to induce on day 4 and reached the peak point after about 45 days. The period for this test was established as 70 days after edema induction to observe the inhibitory effect on edema of the extracts of the present invention. As the result, the edema size was measured using a precision gauge.

[2] = system: Raw 264.7 cell lines; assay: Induction of apoptosis of macrophages; format: cell-based; settings: Raw 264.7 cells; 10 μg/ml, 24 hours
Protocol: (§1) In order to determine whether the compound identified as the effective component of the pharmaceutical composition separated according to the present invention can induce the apoptosis of Raw 264.7 cell lines as macrophage involved in inflammatory reaction and synovial cells, the cells were distributed on 5% DMEM medium supplemented with penicillin/streptomycin in a 6-well culture dish at the concentration of 10^4 cells and then incubated at 37° C. for 24 hours while adding the extractions as above at the concentration of 10 μg/ml to observe the reaction. Apoptosis was examined by taking a photograph of apoptosis-induced cells under a polarizing microscope of 200 magnifications.

[3] = system: synovial cells; assay: Induction of apoptosis of synovial cell lines; format: cell-based, human; settings: 10 μg/ml, 24 hours
Protocol: The synovial cells separated from outpatients suffering from rheumatoid arthritis were distributed on 5% DMEM medium supplemented with penicillin/streptomycin in a 6-well culture dish at the concentration of 10^4 cells and then incubated for 24 hours at 37° C. to observe the surviving cells. In order to determine the presence or absence of cells and the proliferating state of cells, apoptosis-induced cells were examined by taking their photographs under a phase-contrast microscope of 200 magnifications.
as §1

[4] = system: COX-II; assay: Inhibition of COX-II expression at the level of transcription through RT-PCR; format: cell-based
Protocol: In order to identify the ingredient having an inhibitory activity against COX-II and inducible nitric oxide synthetase (iNOS) as the causal factors of rheumatoid arthritis in the extract used as the effective component of the pharmaceutical composition according to the present invention as in Experiment 6 above, the cells were distributed in T75 flask at the concentration of 10^5 cells, incubated for 7 days and then stimulated for 2 hours by introducing LPS in the flask at the concentration of 50 ng/ml. Then, the extract of the present invention was added so as to make the final concentration of 50 μg/ml. The cells were harvested into a 1.5 ml Eppendorf tube and centrifuged with 15,000 rpm at 4° C. for 15 minutes to remove the supernatant. 200 μl of RNAzol solution was added to the residue followed by addition of 50 μl of chloroform. The cells were lysed by careful pippeting, and then centrifuged with 15,000 rpm at 4° C. for 15 minutes to recover a total RNA, which was then precipitated at 4° C. for 15 minutes by adding the same volume of isopropanol, washed once with 75% ethanol and then dried. The cell lysate was dissolved by adding 20 μl of […] and then warming the mixture at 60° C. for 30 minutes. Then, reverse transcriptase reaction was conducted at 50° C. for 20 minutes by adding 5 μl of 10 mM dNTP, 6 μl of 25 mM MgCl2, 5 μl of 10× RNA PCR buffer, 1 μl of RNase inhibitor, 1 μl of AMV-optimized Taq, 1 μl of AMV reverse transcriptase XL, 1 μl of 50 pM specific primer (sense/antisense), and 26 μl of RNase free dH2O to 5 μl of total RNA, and then stopped at 94° C. for 2 minutes to conduct DNA synthetic reaction (polymerase chain reaction: PCR). The PCR was conducted under conditions comprising 94° C. 1 minute, 55° C. 45 seconds, 70° C. 60 seconds for 35 cycles, and then, finally the elongation reaction was conducted at 70° C. for 5 minutes to complete the reaction. The resulting PCR product was eluted on 1% agarose gel and observed whether the bands are present near 395 bp and 278 bp on the basis of a size marker.

[5] = Effect on arthritis of the compounds isolated from Harpagophytum procumbens DC (summary statement); settings: summary in background text
[6] = system: Raw 264.7 cell lines; assay: Effect on cell cycle of macrophage cells (flow cytometry); format: cell-based; settings: 20 μg/ml, LPS 50 ng/ml, propidium iodide flow cytometry
Protocol: (§2) Two kinds of cells were incubated as in Experiment 6 and then washed with PBS (phosphate-buffered saline). LPS was distributed on the respective dishes at the concentration of 50 ng/ml to stimulate the cells. Then, the extract according to the present invention was added over 2 hours so as to make the final concentration of 20 μg/ml. The supernatant was removed, washed with PBS and then treated with trypsin. The cells were harvested, introduced into Eppendorf tube and then centrifuged at 1,000 rpm for 5 minutes to remove the supernatant. The residue was fixed with addition of 1 ml of 100% ethanol. At this time, the mixture of 5 μg/ml propidium iodide and RNAse was separately prepared. The fixed cells were centrifuged to remove the supernatant and then washed once with PBS. Simultaneously, the staining agent as previously prepared above was added to the fixed cells and then warmed in an incubator at 37° C. for 30 minutes. The cells stained with propidium iodide was sealed with foil, stored at 4° C. and then subjected to a flow cytometry analysis using FACscan (Becton Dickinson, Calif.) as the analyzing apparatus.

[7] = system: CAM formation induced by synovial cells; assay: Angiogenesis of synovial cells in chorioallantoic membrane (CAM) of fertilized egg; settings: 10 μg/ml on CAM; compared to control group
Protocol: In order to determine the effect of the organic solvent fractions obtained in Experiment 1 on the angionenesis of synovial cells using the cells separated in Experiment 2, synovial cells were injected into fertilized egg and then incubated in an incubator at 37° C. for 3 days to observe the formation of chorioallantoic membrane (CAM). In the present state, the fractions separated according to the above method were respectively distributed on CAM at the concentration of 10 μg/ml to observe the degree of CAM decrease.

[8] = system: NO formation in RAW 264.7 cell lines; assay: NO formation in macrophage cells stimulated by lipid polysaccharide; format: cell-based; settings: 10 μg/ml; LPS 50 ng/well; Greiss reagent
Protocol: In order to identify whether the extracts obtained according to the present invention can inhibit the synthesis of nitric oxide (NO) as the potent inducer of inflammation in blood due to edema as above, macrophage RAW 264.7 cell lines were distributed in a 96-well microplate at the concentration of 10^3 cells per well and then incubated for 12 hours. Then, lipid polysaccharide was added to the plate at the concentration of 50 ng/well to stimulate the cells for 2 hours. The respective organic solvent fractions were added to the plate to the final concentration of 10 μg/ml followed by addition of 50 μl of Greiss reagent solution, and then allowed to react together at room temperature. Then, the absorbance of the plate was measured at 540 nm of ELISA (enzyme-linked immunosorbent assay) reader. For comparative analysis, 0.1, 1, 10, 20, 50, 100, 150 μM sodium nitrite as the standard solution were developed with sodium nitroprusside dihydrate (SNP).

[9] = system: synovial cell lines; assay: Effect on cell cycle of synovial cell lines (flow cytometry); format: cell-based, human; settings: 20 μg/ml, LPS 50 ng/ml, propidium iodide flow cytometry
Protocol: as §2

[10] = system: iNOS; assay: Inhibition of iNOS expression at the level of transcription through RT-PCR; format: cell-based; settings: FIG. 11a; 50 μg/ml; LPS 50 ng/ml
Protocol: In order to identify the ingredient having an inhibitory activity against COX-II and inducible nitric oxide synthetase (iNOS) as the causal factors of rheumatoid arthritis in the extract used as the effective component of the pharmaceutical composition according to the present invention as in Experiment 6 above, the cells were distributed in T75 flask at the concentration of 10^5 cells, incubated for 7 days and then stimulated for 2 hours by introducing LPS in the flask at the concentration of 50 ng/ml. Then, the extract of the present invention was added so as to make the final concentration of 50 μg/ml. The cells were harvested into a 1.5 ml Eppendorf tube and centrifuged with 15,000 rpm at 4° C. for 15 minutes to remove the supernatant. 200 μl of RNAzol solution was added to the residue followed by addition of 50 μl of chloroform. The cells were lysed by careful pippeting, and then centrifuged with 15,000 rpm at 4° C. for 15 minutes to recover a total RNA, which was then precipitated at 4° C. for 15 minutes by adding the same volume of isopropanol, washed once with 75% ethanol and then dried. The cell lysate was dissolved by adding 20 μl of […] and then warming the mixture at 60° C. for 30 minutes. […]

[11] = system: COX-II; assay: Expression of COX-II protein by immunocytochemical analysis in synovial cells; format: cell-based; settings: 10 μg/ml
Protocol: In order to determine whether the compound identified as the effective component of the pharmaceutical composition separated by the present invention induces an inhibitory effect on COX-II of synovial cells in joint portion, 10^4 synovial cells were distributed on 5% DMEM medium supplemented with penicillin/streptomycin in 6-well culture dish containing a slimb over glass, incubated for 24 hours at 37° C., during which the extract of the present invention was added to the concentration of 10 μg/ml to observe the reaction. The waste was removed and then, the cells were washed once with PBS, fixed with methanol and then washed with PBS. The cells were labeled with the primary antibody COX-II and then allowed to stand at 4° C. for about one hour. Then, the cells were labeled with a fluorescence (fluorescein isothiocyanate: FITC) as the secondary antibody, allowed to stand for about one hour while masking from light with foil and then observed under a fluorescence microscope.

[12] = system: edema-induced albino rats; assay: Joint rupture in edema-inhibited albino rats by X-ray analysis; format: in vivo; settings: oral 14 days, 75 μg/ml; about 70 days
Protocol: The respective water extract and organic solvent fractions were orally administered for 14 days at the concentration of 75 μg/ml to investigate their inhibitory effect on edema as in Experiment 1. The test albino rats were anesthetized to take X-ray photograph.

[13] = system: nogo-A expressed U-373 MG cell line; assay: Neurite regeneration in nogo-A expressing glioblastoma cells (vertebral neuroparalysis); format: cell-based; settings: nogo-A transfected U-373 cells; phase-contrast microscope
From the text: Simultaneously, it was also observed whether neurites can be regenerated by treatment with neuronal growth factor (NGF) or whether the fractions of the present invention can provide the same effect, by taking a photograph with a phase-contrast microscope of 200 magnifications.

Compound	edema size after treatment ([1]; Table 3 (best fractions), measured after 70 days, unit not given, in mm)	edema size before treatment ([1]; Table 3 (best fractions), unit not given, in mm)	inhibitory effect on edema [1]	induction of apoptosis [2]	induction of apoptosis [3]	effect on COX-II expression (RT-PCR) ([4]; FIG. 11c, respective fractions)	effect on arthritis [5]	effect on cell cycle [6]	induction of CAM formation (angiogenesis by synovial cells) [7]	inhibition of NO formation [8]	effect on cell cycle [9]	effect on iNOS expression (RT-PCR band near 278 bp) [10]	effect on COX-II expression (RT-PCR) ([4]; FIG. 11a, 50 μg/ml, LPS 50 ng/ml)	COX-II protein expression (immunofluorescence, FITC) [11]	osteogenesis (X-ray) [12]	rupture of cartilage in arthritic portion (X-ray) [12]	neurite pattern (regeneration of neurites) [13]
C[C@]1(OC(=O)/C=C/c2ccccc2)C[C@@H](O)[C@]2(O)C=CO[C@@H](O[C@@H]3O[C@H](CO)[C@@H](O)[C@H](O)[C@H]3O)[C@@H]21 [LNE-1, harpagoside]	5.1 ± 2	15.1 ± 2	potent inhibitory effect on edema	more strongly inducing the apoptosis	more strongly inducing the apoptosis	strongly inhibit the protein expression	moderate pharmacological effect	–	–	–	–	–	–	–	–	–	–
OC[C@H]1O[C@H](OC[C@H]2O[C@H](OC[C@H]3O[C@H](O[C@]4(CO)O[C@H](CO)[C@@H](O)[C@@H]4O)[C@H](O)[C@@H](O)[C@@H]3O)[C@H](O)[C@@H](O)[C@H]2O)[C@H](O)[C@@H](O)[C@H]1O [LNE-2, starchyose]	–	–	–	–	–	–	–	induced G0/G1 arrest	–	–	–	–	–	–	–	–	–
C[C@]1(O)C[C@@H](O)[C@]2(O)C=CO[C@@H](O[C@H]3O[C@H](CO)[C@@H](O)[C@H](O)[C@H]3O)[C@@H]21 [LNE-3, harpagide]	–	–	potent inhibitory effect on edema; also recorded: most significant	more strongly inducing the apoptosis	more strongly inducing the apoptosis	strongly inhibit the protein expression	most effective	–	more strongly inhibited the induction of CAM formation	stronger inhibitory effect on NO formation	induced the apoptosis	have an effect on the protein expression	inhibitory effect at the level of transcription	tendency to greatly decrease the protein expression	effect of stimulating the osteogenesis	inhibits the rupture of cartilage in arthritic portion	neurites were lengthened
